Test results reported in BigSolDB 2.1.

O=[N+]([O-])c1cccc2c([N+](=O)[O-])cccc12
solubility (mole fraction)
Conditions | in acetone | in acetonitrile | in chloroform | in ethanol | in ethyl acetate | in ethylbenzene | in n-propanol | in toluene
273.15 K | 0.000703 | 0.000236 | 0.000629 | 1.99e-05 | 0.000648 | 0.000522 | 2.17e-05 | 0.000683
275.65 K | 0.000762 | 0.000265 | 0.000731 | 2.25e-05 | 0.000699 | 0.000578 | 2.53e-05 | 0.000761
278.15 K | 0.000844 | 0.000296 | 0.000881 | 2.62e-05 | 0.000754 | 0.000638 | 2.96e-05 | 0.000858
280.65 K | 0.000912 | 0.000333 | 0.00102 | 3.1e-05 | 0.000835 | 0.000714 | 3.41e-05 | 0.000958
283.15 K | 0.000991 | 0.000372 | 0.00118 | 3.66e-05 | 0.000923 | 0.000785 | 3.92e-05 | 0.00106
285.65 K | 0.00108 | 0.000415 | 0.00135 | 4.16e-05 | 0.000998 | 0.000863 | 4.45e-05 | 0.00117
288.15 K | 0.00117 | 0.000468 | 0.00153 | 4.81e-05 | 0.00113 | 0.000941 | 5.16e-05 | 0.00129
290.65 K | 0.00126 | 0.00053 | 0.0017 | 5.43e-05 | 0.00123 | 0.00104 | 5.77e-05 | 0.00141
293.15 K | 0.00138 | 0.000585 | 0.00192 | 6.15e-05 | 0.00136 | 0.00116 | 6.54e-05 | 0.00153
295.65 K | 0.00149 | 0.000659 | 0.00213 | 6.94e-05 | 0.00148 | 0.00129 | 7.43e-05 | 0.0017
298.15 K | 0.00164 | 0.000741 | 0.00238 | 7.82e-05 | 0.00164 | 0.0014 | 8.45e-05 | 0.00186
300.65 K | 0.00174 | 0.000831 | 0.00269 | 8.74e-05 | 0.0018 | 0.00152 | 9.67e-05 | 0.00205
303.15 K | 0.0019 | 0.000914 | 0.00295 | 9.75e-05 | 0.00198 | 0.00166 | 0.00011 | 0.00223
305.65 K | 0.00201 | 0.000997 | 0.00334 | 0.000109 | 0.00218 | 0.00182 | 0.000126 | 0.00242
308.15 K | 0.00217 | 0.00111 | 0.00369 | 0.000122 | 0.00238 | 0.00201 | 0.000142 | 0.00264
310.65 K | 0.00229 | 0.00121 | 0.00408 | 0.000139 | 0.00258 | 0.00219 | 0.000163 | 0.00287
313.15 K | 0.00242 | 0.00133 | 0.00451 | 0.000157 | 0.00284 | 0.00248 | 0.000182 | 0.00309
